Data from PMC5854716, “Synthesis, molecular docking, ctDNA interaction, DFT calculation and evaluation of antiproliferative and anti-Toxoplasma gondii activities of 2,4-diaminotriazine-thiazole derivatives” (Medicinal Chemistry Research, 2018).
≈ marks a conversion by molar mass, not a printed value.

What was measured:
[1] = system: Toxoplasma gondii BK strain; experiment: T. gondii tachyzoite intracellular proliferation in VERO host cells ([3H]uracil incorporation); type: cell-based; conditions: Toxoplasma gondii, VERO host cells
Protocol: (§1) The epithelial cell line VERO (ATCC-Catalog No. CCL-81^TM), derived from the kidney of the African green monkey, Cercopithecus aethiops and fibroblast cell line L-929 (ATCC-Catalog No. CCL-1^TM), derived from Mus musculus (http://www.atcc.org) were grown in Iscoves’s Modified Dulbecco’s Medium (IMDM) supplemented with 10% (v/v) fetal bovine serum (FBS), plus 2 mM L-glutamine, 100 U/ml penicillin, 100.00 µg/ml streptomycin, 5 × 10^−5 M 2-mercaptoethanol and maintained at 37 °C in a 10% CO2 atmosphere. Subcultures were performed via enzymatic cell dissociation in 0.25% trypsin. After dissociation, the cells were placed in culture medium at 4 °C with 10% FBS to inhibit the action of trypsin. The isolated cells were centrifuged for 10 min at 1000×g at 4 °C, and the cells were grown in new bottles. This procedure was repeated when cells reached a confluence of ~90%. All commercial reactants and solvents were purchased from either Sigma-Aldrich Laborchemikalien GmbH (Dzitko et al. [2014]).
(§2) Suspensions of the compounds 4a–l were freshly prepared (5 mg/ml DMSO) before the cells were exposed, and diluted to appropriate concentrations; 0.9, 1.8, 3.9, 7.8, 15.6, 31.2, 62.5, and 125.00 μg/ml with the culture medium. Cells treated with 2.5% DMSO-solvent served as a control in each experiment.
Stock solutions of the Sulfadiazine (100 mg/ml 1 N NaOH; Catalog No. S8626) was freshly prepared before each experiment, and diluted to appropriate concentrations: 5.00, 25.00, 50.00, 125.00, 250.00, 500.00, 1250.00, and 2500.00 μg/ml, respectively in IMDM complete medium. All commercial reactants and solvents were purchased from either Sigma-Aldrich Laborchemikalien GmbH.
Tachyzoites of T. gondii, BK strain, were maintained in female C57BL/6 (H-2^b) and BALB/c (H-2^d) mice (with genetically determined high and low susceptibility, respectively to Toxoplasma infection) via serial intraperitoneal inoculation of 10^5–10^6 parasites per mouse in phosphate-buffered saline (PBS). After 48 to 96 h, parasites were harvested via peritoneal lavage using PBS, pH 7.2, and centrifuged at 200×g for 5 min to remove blood cells and cell debris. The supernatant containing tachyzoites was collected and centrifuged again at 2000×g for 15 min. The final pellet was resuspended in IMDM, quantified in a Burker’s chamber, and used in experimental assays. Inbred mice were kept under standard laboratory conventional conditions. All experimental procedures were conducted according to guidelines of the 9. Local Ethics Commission for Experiments on Animals in Lodz.
VERO, (2 × 10^4 cells/100 µl/well) were grown in complete medium (IMDM) on 96-well plates. After 24 h incubation, a medium was removed and then T. gondii […] tachyzoites, suspended in culture medium supplemented with 0.9–125.00 μg/ml diaminotriazines 4a–l and as a control-sulfadiazine (5.0–2500.0 μg/ml), were added (2 × 10^5 tachyzoites/200 µl/well) to the cell monolayers. After subsequent 48 h incubation 1 µCi/well of [^3H] uracil (Moravek Biochemicals Inc., Brea, CA, USA) was applied to each microculture for further 18–20 h. The amount of the isotope incorporated into the parasite nucleic acid pool, corresponding to the parasite growth, was measured by liquid scintillation counting with 1450 Microbeta Plus Liquid Scintillation Counter (Wallac Oy, Turku, Finland). The cpms of host cells alone (below 250/microculture) were subtracted from cpms of T. gondii infected microcultures (Dzitko et al. [2014]).

[2] = Cell viability assay (MTT), L929; type: cell-based, Mus musculus; conditions: mouse, L929 fibroblast cells
Protocol: as §1, §2
(§3) The effects of tested compounds on the viability of mouse fibroblasts L929 and […] VERO cells were evaluated using the MTT assay. The MTT assay was used according to international standards: ISO 10993-5:2009 (Tests for in vitro cytotoxicity; http://www.iso.org/iso/catalogue_detail.htm? csnumber = 36406). L929 and VERO cells were plated into 96-well plates at a density of 1.0 × 10^4/100 μl/well in culture medium and allowed to attach for 24 h before treatment. Afterwards, culture medium in the plates was replaced by 100 μl compounds suspension at concentration of 0–125 μg/ml and the cells were exposed for 24 h. Then 1 mg/ml MTT (50 μl/well) was added to each well and incubated at 37 °C, 10 % CO2 for 2 h. Mitochondrial dehydrogenases of viable cells reduce the yellowish water-soluble MTT to water-insoluble formazan crystals, which were solubilized with dimethyl sulfoxide (DMSO). The cell culture medium was aspirated cautiously, after which 150 μl DMSO was added to each well and mixed thoroughly. Optical density (OD) was read on the ELISA reader (Multiskan EX, Labsystems; http://www.mtxlsi.com/multiskan_EX.htm) at 550 nm. The results were expressed as percentage viability compared with the treated 2.5% DMSO controls. All experiments were performed in triplicate.

mouse L929 fibroblast = experiment: Cell viability assay (MTT), L929; type: cell-based; conditions: concentration for 30% proliferation inhibition, 24 h
Protocol: as §1, §2, §3

[3] = Cell viability assay (MTT), VERO; type: cell-based, Cercopithecus aethiops; conditions: African green monkey (Cercopithecus aethiops), VERO kidney epithelial cells
Protocol: as §1, §2, §3

VERO cells = experiment: Cell viability assay (MTT), VERO; type: cell-based, Cercopithecus aethiops; conditions: concentration for 30% proliferation inhibition, 24 h
Protocol: as §1, §2, §3

C/C(=N\NC(N)=S)c1ccc(Nc2nc(N)nc(N)n2)cc1 [Compound 3, (2E)-2-(1-(4-((4,6-diamino-1,3,5-triazin-2-yl)amino)phenyl)ethylidene)hydrazinecarbothioamide]
activity at 0.9 µg/mL ([1]; 0.9 µg/ml): 100%
activity at 1.8 µg/mL ([1]; 1.8 µg/ml): 107%
activity at 3.9 µg/mL ([1]; 3.9 µg/ml): 98.6%
activity at 7.8 µg/mL ([1]; 7.8 µg/ml): 84.2%
activity at 15.6 µg/mL ([1]; 15.6 µg/ml): 64.6%
activity at 31.2 µg/mL ([1]; 31.2 µg/ml): 57.8%
activity at 62.5 µg/mL ([1]; 62.5 µg/ml): 49.4%
activity at 125 µg/mL ([1]; 125.0 µg/ml): 48.7%
IC50 ([1]; GraphPad Prism curves, read-out: IC50 (50% inhibition of T. gondii proliferation in vitro)): 70.4 mg/L (≈ 222 µM)
viability at 24 h, 0.9 µg/ml ([2]; 0.9 µg/ml): 110%
viability at 24 h, 1.8 µg/ml ([2]; 1.8 µg/ml): 116%
viability at 24 h, 3.9 µg/ml ([2]; 3.9 µg/ml): 111%
viability at 24 h, 7.8 µg/ml ([2]; 7.8 µg/ml): 106%
viability at 24 h, 15.6 µg/ml ([2]; 15.6 µg/ml): 105%
viability at 24 h, 31.2 µg/ml ([2]; 31.2 µg/ml): 112%
viability at 24 h, 62.5 µg/ml ([2]; 62.5 µg/ml): 111%
viability at 24 h, 125 µg/ml ([2]; 125.0 µg/ml): 110%
CC30 L929 (mouse L929 fibroblast): >125.0 mg/L
viability at 24 h, 0.9 µg/ml ([3]; 0.9 µg/ml): 97.2%
viability at 24 h, 1.8 µg/ml ([3]; 1.8 µg/ml): 94%
viability at 24 h, 3.9 µg/ml ([3]; 3.9 µg/ml): 97.3%
viability at 24 h, 7.8 µg/ml ([3]; 7.8 µg/ml): 88.8%
viability at 24 h, 15.6 µg/ml ([3]; 15.6 µg/ml): 89.5%
viability at 24 h, 31.2 µg/ml ([3]; 31.2 µg/ml): 96.2%
viability at 24 h, 62.5 µg/ml ([3]; 62.5 µg/ml): 95.1%
viability at 24 h, 125 µg/ml ([3]; 125.0 µg/ml): 89.2%
CC30 VERO (VERO cells): >125.0 mg/L
melting point: > 230 °C
